Values quoted from earlier work in patent US20060189550A1, “Immunostimulatory, Covalently lipidated oligonucleotides” (Biomira Inc., priority 2002, published 2006).

conditions: Table K-2, reference compounds; experimental database value from LogKow

Compound	LogP Exp
Cc1c[nH]c2ccccc12 [3-methyl indole]	2.60
CCSC [Ethane, (methylthio)-]	1.54
CCCCOC [methyl n-butyl ether]	1.66
O=c1ccc2cc3ccoc3cc2o1 [psoralen]	1.67
